Measurements as given in the supplement of paper PMC11451515.

Key:
Settings in all cases: 48 h
NOMO1 [1] = assay: cell viability relative to DMSO control; higher = less cytotoxic
Method in brief: (§1)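 Library compounds in DMSO were pin-dosed in an 11-point threefold series (47 μM to 0.79 nM) onto leukemia cells in 1536-well plates (5 μl). Plates held 500 cells/well of NOMO1 or SEM or 1000 cells/well of P12-Ichikawa, each adapted for at least four passages in each medium. Luminescence was read with CellTiter-Glo One after 48 h at 37°C. Viability means the per-plate percentage relative to DMSO wells, using cell-free wells as background.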

SEM cells [2] = assay: as above
Method in brief: as §1

P12-Ichikawa [3] = assay: as above
Method in brief: as §1

NOMO1 [4] = assay: AUC of viability dose-response curve (% viability x log10 dose units); higher = less sensitive
Method in brief: (§2)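 In 1536-well plates, leukemia cells adapted to each medium (500 or 1000 cells/well) were exposed for 48 h at 37°C to library compounds in DMSO across 11 threefold doses, 47 μM down to 0.79 nM. Viability was read by CellTiter-Glo One luminescence and normalised per plate to DMSO and cell-free wells. A four-parameter log-logistic fit over log10 doses was integrated by trapezoidal rule. This yielded the area under the curve, with over-full-viability curves scaled and quality-control failures dropped.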

SEM cells [5] = assay: as above
Method in brief: as §2

P12-Ichikawa [6] = assay: as above
Method in brief: as §2

C[N+](C)(C)CC(=O)O.[Cl-]
cell viability [%]
Settings	NOMO1 [1]	P12-Ichikawa [3]	SEM cells [2]
HPLM + 10% dialyzed FBS, 0.000781 µM	63.1	86.5	56.8
HPLM + 10% dialyzed FBS, 0.00234 µM	90.5	92	83.2
HPLM + 10% dialyzed FBS, 0.00702 µM	85	93	80.5
HPLM + 10% dialyzed FBS, 0.0211 µM	94.9	92.6	73.7
HPLM + 10% dialyzed FBS, 0.0632 µM	94.4	93.7	79.7
HPLM + 10% dialyzed FBS, 0.19 µM	86.3	87	85.5
HPLM + 10% dialyzed FBS, 0.569 µM	95.6	98.2	88.3
HPLM + 10% dialyzed FBS, 1.71 µM	89.5	89.8	26.3
HPLM + 10% dialyzed FBS, 5.12 µM	104	99.3	93.1
HPLM + 10% dialyzed FBS, 15.4 µM	86.5	88.2	93.4
HPLM + 10% dialyzed FBS, 46.1 µM	93.9	99.1	89.1
RPMI 5 mM glucose + 10% FBS, 0.000781 µM	77.1	86.4	76.8
RPMI 5 mM glucose + 10% FBS, 0.00234 µM	86	94.4	80.8
RPMI 5 mM glucose + 10% FBS, 0.00702 µM	80.4	90.9	73
RPMI 5 mM glucose + 10% FBS, 0.0211 µM	81.6	94.7	77.4
RPMI 5 mM glucose + 10% FBS, 0.0632 µM	85.5	91.8	81.8
RPMI 5 mM glucose + 10% FBS, 0.19 µM	87.6	91.5	89.2
RPMI 5 mM glucose + 10% FBS, 0.569 µM	87.8	98	96
RPMI 5 mM glucose + 10% FBS, 1.71 µM	80.3	91.5	16.6
RPMI 5 mM glucose + 10% FBS, 5.12 µM	83.2	94.1	86.8
RPMI 5 mM glucose + 10% FBS, 15.4 µM	84.2	98	90.2
RPMI 5 mM glucose + 10% FBS, 46.1 µM	81.1	93.7	93.4
RPMI 5 mM glucose + 10% dialyzed FBS, 0.000781 µM	68.8	81.8	81.5
RPMI 5 mM glucose + 10% dialyzed FBS, 0.00234 µM	88.1	87.4	95
RPMI 5 mM glucose + 10% dialyzed FBS, 0.00702 µM	79.7	85.4	90.9
RPMI 5 mM glucose + 10% dialyzed FBS, 0.0211 µM	89.3	86	87.8
RPMI 5 mM glucose + 10% dialyzed FBS, 0.0632 µM	90.8	91.1	81.7
RPMI 5 mM glucose + 10% dialyzed FBS, 0.19 µM	89.1	82.4	89
RPMI 5 mM glucose + 10% dialyzed FBS, 0.569 µM	92.3	90.7	100
RPMI 5 mM glucose + 10% dialyzed FBS, 1.71 µM	91.5	88.1	21
RPMI 5 mM glucose + 10% dialyzed FBS, 5.12 µM	83.8	82.9	91.8
RPMI 5 mM glucose + 10% dialyzed FBS, 15.4 µM	92	90.4	88.8
RPMI 5 mM glucose + 10% dialyzed FBS, 46.1 µM	84.7	81.7	74.2

AUC of viability dose-response curve
Settings	NOMO1 [4]	P12-Ichikawa [6]	SEM cells [5]
HPLM + 10% dialyzed FBS	432	442	373
RPMI 5 mM glucose + 10% FBS	398	446	374
RPMI 5 mM glucose + 10% dialyzed FBS	416	411	391

CN1CC/C(CC1)=C3\c4ccccc4CC(=O)c2sccc23
cell viability [%]
Settings	NOMO1 [1]	P12-Ichikawa [3]	SEM cells [2]
HPLM + 10% dialyzed FBS, 0.000781 µM	120	117	107
HPLM + 10% dialyzed FBS, 0.00234 µM	125	127	110
HPLM + 10% dialyzed FBS, 0.00702 µM	114	123	127
HPLM + 10% dialyzed FBS, 0.0211 µM	121	120	121
HPLM + 10% dialyzed FBS, 0.0632 µM	130	119	119
HPLM + 10% dialyzed FBS, 0.19 µM	128	129	122
HPLM + 10% dialyzed FBS, 0.569 µM	153	134	127
HPLM + 10% dialyzed FBS, 1.71 µM	135	126	133
HPLM + 10% dialyzed FBS, 5.12 µM	110	129	142
HPLM + 10% dialyzed FBS, 15.4 µM	112	120	123
HPLM + 10% dialyzed FBS, 46.1 µM	105	109	110
RPMI 5 mM glucose + 10% FBS, 0.000781 µM	120	–	115
RPMI 5 mM glucose + 10% FBS, 0.00234 µM	123	–	124
RPMI 5 mM glucose + 10% FBS, 0.00702 µM	136	–	123
RPMI 5 mM glucose + 10% FBS, 0.0211 µM	135	–	114
RPMI 5 mM glucose + 10% FBS, 0.0632 µM	136	–	127
RPMI 5 mM glucose + 10% FBS, 0.19 µM	134	–	125
RPMI 5 mM glucose + 10% FBS, 0.569 µM	156	–	126
RPMI 5 mM glucose + 10% FBS, 1.71 µM	131	–	116
RPMI 5 mM glucose + 10% FBS, 5.12 µM	142	–	145
RPMI 5 mM glucose + 10% FBS, 15.4 µM	151	–	129
RPMI 5 mM glucose + 10% FBS, 46.1 µM	128	–	103
RPMI 5 mM glucose + 10% dialyzed FBS, 0.000781 µM	–	–	117
RPMI 5 mM glucose + 10% dialyzed FBS, 0.00234 µM	–	–	114
RPMI 5 mM glucose + 10% dialyzed FBS, 0.00702 µM	–	–	126
RPMI 5 mM glucose + 10% dialyzed FBS, 0.0211 µM	–	–	104
RPMI 5 mM glucose + 10% dialyzed FBS, 0.0632 µM	–	–	119
RPMI 5 mM glucose + 10% dialyzed FBS, 0.19 µM	–	–	129
RPMI 5 mM glucose + 10% dialyzed FBS, 0.569 µM	–	–	135
RPMI 5 mM glucose + 10% dialyzed FBS, 1.71 µM	–	–	108
RPMI 5 mM glucose + 10% dialyzed FBS, 5.12 µM	–	–	128
RPMI 5 mM glucose + 10% dialyzed FBS, 15.4 µM	–	–	106
RPMI 5 mM glucose + 10% dialyzed FBS, 46.1 µM	–	–	113

AUC of viability dose-response curve
Settings	NOMO1 [4]	P12-Ichikawa [6]	SEM cells [5]
HPLM + 10% dialyzed FBS	462	472	460
RPMI 5 mM glucose + 10% FBS	463	467	472
RPMI 5 mM glucose + 10% dialyzed FBS	463	470	473

CN1/C=C(\N=C(NC2=CC=C(C=C2)C(=O)N3CCOCC3)/C1=O)/C4=C(C)C(=CC=C4)NC(=O)C5=CC=C(C=C5)C(C)(C)C
cell viability [%]
Settings	NOMO1 [1]	P12-Ichikawa [3]	SEM cells [2]
HPLM + 10% dialyzed FBS, 0.000781 µM	91.6	107	111
HPLM + 10% dialyzed FBS, 0.00234 µM	114	108	97.2
HPLM + 10% dialyzed FBS, 0.00702 µM	102	108	105
HPLM + 10% dialyzed FBS, 0.0211 µM	85.2	101	48.6
HPLM + 10% dialyzed FBS, 0.0632 µM	103	104	106
HPLM + 10% dialyzed FBS, 0.19 µM	111	103	116
HPLM + 10% dialyzed FBS, 0.569 µM	112	106	97.5
HPLM + 10% dialyzed FBS, 1.71 µM	110	98.1	110
HPLM + 10% dialyzed FBS, 5.12 µM	97.2	98.3	106
HPLM + 10% dialyzed FBS, 15.4 µM	94.2	88.6	89.5
HPLM + 10% dialyzed FBS, 46.1 µM	70.7	89.5	92.2
RPMI 5 mM glucose + 10% FBS, 0.000781 µM	91.4	102	110
RPMI 5 mM glucose + 10% FBS, 0.00234 µM	84.4	95.4	102
RPMI 5 mM glucose + 10% FBS, 0.00702 µM	99.5	107	106
RPMI 5 mM glucose + 10% FBS, 0.0211 µM	89.5	91.2	46.8
RPMI 5 mM glucose + 10% FBS, 0.0632 µM	98.3	106	101
RPMI 5 mM glucose + 10% FBS, 0.19 µM	88.7	110	86.6
RPMI 5 mM glucose + 10% FBS, 0.569 µM	100	97.9	110
RPMI 5 mM glucose + 10% FBS, 1.71 µM	84.9	100	92.8
RPMI 5 mM glucose + 10% FBS, 5.12 µM	80.6	98.5	104
RPMI 5 mM glucose + 10% FBS, 15.4 µM	88.1	95.4	83.3
RPMI 5 mM glucose + 10% FBS, 46.1 µM	85.1	94.4	66
RPMI 5 mM glucose + 10% dialyzed FBS, 0.000781 µM	97.6	106	106
RPMI 5 mM glucose + 10% dialyzed FBS, 0.00234 µM	92.9	111	108
RPMI 5 mM glucose + 10% dialyzed FBS, 0.00702 µM	96.2	103	105
RPMI 5 mM glucose + 10% dialyzed FBS, 0.0211 µM	95.9	101	50.7
RPMI 5 mM glucose + 10% dialyzed FBS, 0.0632 µM	106	108	120
RPMI 5 mM glucose + 10% dialyzed FBS, 0.19 µM	100	106	107
RPMI 5 mM glucose + 10% dialyzed FBS, 0.569 µM	107	105	100
RPMI 5 mM glucose + 10% dialyzed FBS, 1.71 µM	94.6	106	111
RPMI 5 mM glucose + 10% dialyzed FBS, 5.12 µM	93.1	107	92.2
RPMI 5 mM glucose + 10% dialyzed FBS, 15.4 µM	78.4	93.7	98.5
RPMI 5 mM glucose + 10% dialyzed FBS, 46.1 µM	77.2	85.7	68.6

AUC of viability dose-response curve
Settings	NOMO1 [4]	P12-Ichikawa [6]	SEM cells [5]
HPLM + 10% dialyzed FBS	466	458	468
RPMI 5 mM glucose + 10% FBS	430	466	443
RPMI 5 mM glucose + 10% dialyzed FBS	454	467	458
